Measurements reported in patent publication US20260315604A1, “OTUB1 Small-Molecule Binders and OTUB1-recruiting Deubiquitinase-targeting Chimeras (DUBTACs)” (ICAHN SCHOOL OF MEDICINE AT MOUNT SINAI, priority 2023, published 2026).

Biological target: T1, Human OTUB1 wild-type (Homo sapiens, UniProt Q96FW1)
T1 construct: His tag (N); made in house; host or cells: E. coli BL21-CodonPlus (DE3)-RIPIL
Assay: Covalent modification of OTUB1 (adduct formation), mass spectrometry-based assay (OTUB1 covalent binders; selected CFTR or cGAS based bivalent compounds)
Assay type: binding
Details: covalent adduct formation with OTUB1 protein
Description: OTUB1 covalent binders were tested for their ability to form the covalent adduct with OTUB1 protein using a mass-spectrometry based assay.
Example 389. Assessment of the Covalent Modification of OTUB1 Protein by Selected OTUB1 Covalent Binders Using a Mass Spectrometry-Based Assay (FIG. 1)
OTUB1 protein (10 μM) was incubated with selecting compounds (2500 μM) at RT for 1 h. The adduct was qualified by mass spectrometry-based assays.
Example 398. Assessment of the Covalent Modification of OTUB1 Protein by Selected CFTR Based Bivalent Compounds Using Mass Spectrometry-Based Assay (FIG. 10)
OTUB1 protein (10 μM) was incubated with selecting bivalent compounds (2500 μM) at RT for 1 h. The adduct was qualified by mass spectrometry-based assays.
Human OTUB1 wild-type (NM_017670.3) and C23S mutation genes were optimized based on the codon preference of E. coli, synthesized and cloned into pET15b vector with a N-terminal His tag by Genscript, respectively. The plasmid was transferred to BL21-CodonPlus (DE3)-RIPIL Competent Cell (230280, Agilent Technologies) and the recombinant protein was induced expressed by 0.5 mM IPTG at 16° C. with shaking 200 rpm for 18 h. Induced cells were harvested by centrifugation and resuspended in cold lysis buffer (50 mM Tris-H—Cl pH 7.5, 150 mM NaCl, 25 mM imidazole pH 7.5, 0.01% IGEPAL, 5% Glycerol) in the presence of Pierce Protease Inhibitor tablets (PIA32963, Fisher Scientific) and 2 mM TCEP pH 7.5.
The cells were lysed by sonication, clarified by centrifugation, and the filtered supernatant loaded onto a 5 ml HisTrap HP affinity column (17524802, Cytiva) in AKTA system. The His-recombinant protein bound to column was washed using buffer A (50 mM Tris-HCl pH 7.5, 150 mM NaCl, 25 mM imidazole pH 7.5, 0.01% IGEPAL, 5% Glycerol) and eluted with buffer B (50 mM Tris-HCl pH 7.5, 150 mM NaCl, 250 mM imidazole pH 7.5, 0.01% IGEPAL, 5% Glycerol). The eluted fractions containing OTUB1 protein were concentrated and subjected to size exclusion chromatography using a 320 mL HiLoad 26/600 Superdex 200 pg column (28989336, Cytiva) under the buffer condition ([…] Tris-HCl pH 7.5, 150 mM NaCl, and 2 mM TCEP pH 7.5). The eluted fractions containing OTUB1 protein were concentrated, divided into aliquots and stored at −80° C. freezer for further usage.
Quality control of the OTUB1 proteins was performed by SDS-PAGE, Nanodrop and mass spectrometry.
Mass Spectrometry-Based Analysis of OTUB1-Covalent Ligand Adducts
To screen the covalent ligands, recombinant OTUB1 protein (10 μM) was respectively incubated with DMSO, EN523 or seven novel ligands (2500 μM) in reaction buffer (50 mM Tris-HCl pH 7.5, 150 mM NaCl, and 0.5 mM TCEP pH 7.5) for 1 h at room temperature.
Then, the total 500 μL reaction solution was exchanged and concentrated to 50 μL 50 mM ammonium bicarbonate with a 10 kDa MWCO centrifugal filter unit (UFC901024, Millipore) and diluted in MS buffer (30% ACN, 0.2% FA) to a final concentration of […]. Mass spectrometry detection was performed by an Agilent LC/MSD Time-Of-Flight (TOF) mass spectrometer (Agilent Technologies) equipped with an electrospray ion source. The data was analyzed by TOF Protein Confirmation Software. All experiments were performed in duplicate.

T1 sequence (Q96FW1 whole entry): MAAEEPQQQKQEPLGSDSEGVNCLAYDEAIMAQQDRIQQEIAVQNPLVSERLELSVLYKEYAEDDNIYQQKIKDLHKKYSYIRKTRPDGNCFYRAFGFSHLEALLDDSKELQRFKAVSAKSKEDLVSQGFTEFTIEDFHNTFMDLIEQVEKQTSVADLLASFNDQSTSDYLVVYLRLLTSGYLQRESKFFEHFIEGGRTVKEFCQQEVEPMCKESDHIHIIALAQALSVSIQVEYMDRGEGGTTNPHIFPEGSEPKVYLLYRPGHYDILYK

With `C=CC(=O)N1CCN(c2ccc(C)s2)C(=O)C1` [XS154-91, 4-acryloyl-1-(5-methylthiophen-2-yl)piperazin-2-one] the “% of OTUB1 modified” value was 52%.

With `C=CC(=O)N1CCN(c2ncc(C)s2)C(=O)C1` [XS154-148, 4-acryloyl-1-(5-methylthiazol-2-yl)piperazin-2-one] the “% of OTUB1 modified” value was 39%.

With `C=CC(=O)N1CCN(c2cnc(C)s2)C(=O)C1` [XS154-184, 4-acryloyl-1-(2-methylthiazol-5-yl)piperazin-2-one] the “% of OTUB1 modified” value was less than 5%.

`C=CC(=O)N1CCN(c2cccc(C)n2)C(=O)C1` [XS159-90, 4-acryloyl-1-(6-methylpyridin-2-yl)piperazin-2-one] was tested, and the “% of OTUB1 modified” value was less than 5%.

For `C=CC(=O)N1CCN(c2cnc(C)n2C)C(=O)C1` [XS165-30, 4-acryloyl-1-(1,2-dimethyl-1H-imidazol-5-yl)piperazin-2-one], the “% of OTUB1 modified” value was less than 5%.

For `C=CC(=O)N1C2CCC1CN(c1cccc(C)c1)C2` [XS165-33, 1-(3-(m-tolyl)-3,8-diazabicyclo[3.2.1]octan-8-yl)prop-2-en-1-one], the “% of OTUB1 modified” value was 5%.

In the case of `C=CC(=O)N1CCC(=O)N(c2cccc(C)c2)CC1` [XS165-53, 1-acryloyl-4-(m-tolyl)-1,4-diazepan-5-one], the “% of OTUB1 modified” value is reported as 5%.

With `C=CC(=O)N1CC2CCC(C1)N2c1cccc(C)c1` [XS165-54, 1-(8-(m-tolyl)-3,8-diazabicyclo[3.2.1]octan-3-yl)prop-2-en-1-one] the “% of OTUB1 modified” value was 1%.

For `Cc1cccc(N2CCN(C(=O)C#C[Si](C)(C)C)CC2=O)c1` [XS165-77, 1-(m-tolyl)-4-(3-(trimethylsilyl)propioloyl)piperazin-2-one], the “% of OTUB1 modified” value was 100%.

In the case of `Cc1cccc(N2CCN(C(=O)/C=C/CN(C)C)CC2=O)c1` [XS165-99, (E)-4-(4-(dimethylamino)but-2-enoyl)-1-(n-tolyl)piperazin-2-one], the “% of OTUB1 modified” value is reported as 38%.

`Cc1ccc(N2CCN(C(=O)/C=C/CN(C)C)CC2=O)o1` [XS165-100, (E)-4-(4-(dimethylamino)but-2-enoyl)-1-(5-methylfuran-2-yl)piperazin-2-one] was tested, and the “% of OTUB1 modified” value was 25%.

With `Cc1ccc(N2CCN(C(=O)/C=C/CN(C)C)CC2=O)s1` [XS165-105, (E)-4-(4-(dimethylamino)but-2-enoyl)-1-(5-methylthiophen-2-yl)piperazin-2-one] the “% of OTUB1 modified” value was 70%.

In the case of `Cc1cccc(N2CCN(C(=O)/C=C/CN(C)C)CC2=O)n1` [XS165-109, (E)-4-(4-(dimethylamino)but-2-enoyl)-1-(6-methylpyridin-2-yl)piperazin-2-one], the “% of OTUB1 modified” value is reported as 10%.

In the case of `Cc1ccc(N2CCN(C(=O)CCl)CC2=O)s1` [XS165-119, 4-(2-chloroacetyl)-1-(5-methylthiophen-2-yl)piperazin-2-one], the “% of OTUB1 modified” value is reported as 25%.

In the case of `Cc1cccc(N2CCN(C(=O)CCl)CC2=O)n1` [XS165-120, 4-(2-chloroacetyl)-1-(6-methylpyridin-2-yl)piperazin-2-one], the “% of OTUB1 modified” value is reported as 100%.

`Cc1cccc(N2CC3CCC(C2)N3C(=O)CCl)n1` [XS165-121, 2-chloro-1-(3-(6-methylpyridin-2-yl)-3,8-diazabicyclo[3.2.1]octan-8-yl)ethan-1-one] was tested, and the “% of OTUB1 modified” value was 100%.

In the case of `Cc1cnc(N2CCN(C(=O)CCl)CC2=O)s1` [XS165-123, 4-(2-chloroacetyl)-1-(5-methylthiazol-2-yl)piperazin-2-one], the “% of OTUB1 modified” value is reported as 100%.

For `Cc1ccc(N2CCN(C(=O)/C=C/CN3CCCC3)CC2=O)s1` [XS165-154, (E)-1-(5-methylthiophen-2-yl)-4-(4-(pyrrolidin-1-yl)but-2-enoyl)piperazin-2-one], the “% of OTUB1 modified” value was 70%.

For `Cc1ccc(N2CCN(C(=O)/C=C/CN3CCOCC3)CC2=O)s1` [XS165-155, (E)-1-(5-methylthiophen-2-yl)-4-(4-morpholinobut-2-enoyl)piperazin-2-one], the “% of OTUB1 modified” value was less than 5%.

With `Cc1ccc(N2CCN(C(=O)/C=C/CN3CCCCC3)CC2=O)s1` [XS165-170, (E)-1-(5-methylthiophen-2-yl)-4-(4-(piperidin-1-yl)but-2-enoyl)piperazin-2-one] the “% of OTUB1 modified” value was 70%.

With `Cc1ccc(N2CCN(C(=O)/C=C/CN(C)C)CC2)s1` [XS165-172, (E)-4-(dimethylamino)-1-(4-(5-methylthiophen-2-yl)piperazin-1-yl)but-2-en-1-one] the “% of OTUB1 modified” value was less than 1%.

In the case of `Cc1ccc(N2CCN(C(=O)/C(C#N)=C/C(C)(C)C)CC2=O)s1` [XS165-177, (E)-4,4-dimethyl-2-(4-(5-methylthiophen-2-yl)-3-oxopiperazine-1-carbonyl)pent-2-enenitrile], the “% of OTUB1 modified” value is reported as 10%.

`Cc1cc(C)c(N2CCN(C(=O)/C=C/CN(C)C)CC2=O)s1` [XS175-45, (E)-4-(4-(dimethylamino)but-2-enoyl)-1-(3,5-dimethylthiophen-2-yl)piperazin-2-one] was tested, and the “% of OTUB1 modified” value was 45%.

`Cc1csc(N2CCN(C(=O)/C=C/CN(C)C)CC2=O)c1` [XS175-46, (E)-4-(4-(dimethylamino)but-2-enoyl)-1-(4-methylthiophen-2-yl)piperazin-2-one] was tested, and the “% of OTUB1 modified” value was 90%.

`Cc1cc(N2CCN(C(=O)/C=C/CN(C)C)CC2=O)cs1` [XS175-59, (E)-4-(4-(dimethylamino)but-2-enoyl)-1-(5-methylthiophen-3-yl)piperazin-2-one] was tested, and the “% of OTUB1 modified” value was 80%.

For `CCc1ccc(N2CCN(C(=O)/C=C/CN(C)C)CC2=O)s1` [XS175-63, (E)-4-(4-(dimethylamino)but-2-enoyl)-1-(5-ethylthiophen-2-yl)piperazin-2-one], the “% of OTUB1 modified” value was 75%.

In the case of `CC(C)c1ccc(N2CCN(C(=O)/C=C/CN(C)C)CC2=O)s1` [XS175-64, (E)-4-(4-(dimethylamino)but-2-enoyl)-1-(5-isopropylthiophen-2-yl)piperazin-2-one], the “% of OTUB1 modified” value is reported as 95%.

In the case of `Cc1sccc1N1CCN(C(=O)/C=C/CN(C)C)CC1=O` [XS175-67, (E)-4-(4-(dimethylamino)but-2-enoyl)-1-(2-methylthiophen-3-yl)piperazin-2-one], the “% of OTUB1 modified” value is reported as 60%.

For `Cc1ccsc1N1CCN(C(=O)/C=C/CN(C)C)CC1=O` [XS175-68, (E)-4-(4-(dimethylamino)but-2-enoyl)-1-(3-methylthiophen-2-yl)piperazin-2-one], the “% of OTUB1 modified” value was 70%.

`Cc1cc(N2CCN(C(=O)/C=C/CN(C)C)CC2=O)sc1C` [XS175-70, (E)-4-(4-(dimethylamino)but-2-enoyl)-1-(4,5-dimethylthiophen-2-yl)piperazin-2-one] was tested, and the “% of OTUB1 modified” value was 90%.

`Cc1ccc(NC(=O)C2CN(C(=O)/C=C/CN(C)C)C2)s1` [XS175-71, (E)-1-(4-(dimethylamino)but-2-enoyl)-N-(5-methylthiophen-2-yl)azetidine-3-carboxamide] was tested, and the “% of OTUB1 modified” value was 40%.

In the case of `Cc1ccc(N2CCCN(C(=O)/C=C/CN(C)C)CC2=O)s1` [XS175-120, (E)-4-(4-(dimethylamino)but-2-enoyl)-1-(5-methylthiophen-2-yl)-1,4-diazepan-2-one], the “% of OTUB1 modified” value is reported as 47%.
